Assay results as given in EP3689361A1, “APPLICATION OF CRANBERRY OR EXTRACT THEREOF IN PREPARATION OF MEDICATIONS OR HEALTH-CARE FOOD FOR TREATING, DELAYING OR ALLEVIATING AGES-RELATED DISEASES” (BY-Health Co., Ltd., priority 2018, dated 2020).

Tested on: AGEs production (BSA + Methylglyoxal)
Test: Inhibition of AGEs production: co-incubation with BSA and MGO, fluorescence read-out
Assay type: biochemical
Conditions: Compound concentration 1mg/mL
Protocol: Bovine serum albumin (BSA) can interact with Methylglyoxal (MGO) to produce AGEs. The compound to be tested was co-incubated with BSA and MGO, and the level of the AGEs production was determined through detecting change of fluorescence value in the system, to thereby evaluate whether or not the compound had inhibitory effect on the AGEs production. […]
With reference to the method of Test Example 1, the inhibitory effect of the AGEs inhibitory compositions of Examples 1-3 on AGEs production was examined. The test results were as follows: Table 13 Inhibitory effect of the AGEs inhibitory compositions on AGEs production

`Cc1cc2nc3c(=O)[nH]c(=O)nc-3n(C[C@H](O)[C@H](O)[C@H](O)CO)c2cc1C` [Vitamin B2] was tested, and the “AGEs production inhibition rate %” value (Table 9, 7 samples) was 94.3%.
For `N=C(N)NN` [Aminoguanidine], the “AGEs production inhibition rate %” value (Table 1, bilberry extracts with different anthocyanin contents) was 101.1% and the “AGEs production inhibition rate %” value (Table 9, 7 samples) was 101.1%.
`Cc1ncc(CO)c(CO)c1O.Cl` [Vitamin B6] was tested, and the “AGEs production inhibition rate %” value (Table 9, 7 samples) was 77.6%.
`Cc1ncc(C[n+]2csc(CCO)c2C)c(N)n1` [Vitamin B1] was tested, and the “AGEs production inhibition rate %” value (Table 9, 7 samples) was 87.3%.
